From US20260130395A1, “Water Dispersible Botanical Compositions” (Aquila Black Limited, priority 2021, published 2026)

Legend:
[1] = Stability of cannabinoid entourage and Vitamin E components of the powder concentrate by LCMSMS; type: physicochemical; conditions: powder stored at 21-25° C.
Protocol: At each time period, 0.05 g of powder was dissolved in 10 ml-15 of ethanol, diluted to fall within the analytical range, and injected into the LCMSMS for analysis.

[2] = Stability of cannabinoid compounds and Vitamin E components in Beverage 1 (AB White) by LCMSMS; type: physicochemical; conditions: for Stability of Plant-Derived Cannabinoid Compounds in AB White, 8° C.: AB White stored at 8° C.; for Stability of Plant-Derived Cannabinoid Compounds in AB White, 21-25° C.: AB White stored at 21-25° C.

CCCCCc1cc(O)c(C/C=C(\C)CCC=C(C)C)c(O)c1 [CBG, cannabigerol]
Stability of Plant-Derived Cannabinoid Compounds in Powder Concentrate ([1]; 0 days): 1.1 mg/g powder
Stability of Plant-Derived Cannabinoid Compounds in Powder Concentrate ([1]; 1 days): 1.07 mg/g powder
Stability of Plant-Derived Cannabinoid Compounds in Powder Concentrate ([1]; 2 days): 1.08 mg/g powder
Stability of Plant-Derived Cannabinoid Compounds in Powder Concentrate ([1]; 3 days): 1.09 mg/g powder
Stability of Plant-Derived Cannabinoid Compounds in Powder Concentrate ([1]; 5 days): 1.11 mg/g powder
Stability of Plant-Derived Cannabinoid Compounds in Powder Concentrate ([1]; 8 days): 1.07 mg/g powder
Stability of Plant-Derived Cannabinoid Compounds in Powder Concentrate ([1]; 9 days): 1.09 mg/g powder
Stability of Plant-Derived Cannabinoid Compounds in Powder Concentrate ([1]; 10 days): 1.08 mg/g powder
Stability of Plant-Derived Cannabinoid Compounds in Powder Concentrate ([1]; 11 days): 1.14 mg/g powder
Stability of Plant-Derived Cannabinoid Compounds in Powder Concentrate ([1]; 12 days): 1.10 mg/g powder
Stability of Plant-Derived Cannabinoid Compounds in Powder Concentrate ([1]; 15 days): 1.08 mg/g powder
Stability of Plant-Derived Cannabinoid Compounds in Powder Concentrate ([1]; 16 days): 1.06 mg/g powder
Stability of Plant-Derived Cannabinoid Compounds in Powder Concentrate ([1]; 17 days): 1.06 mg/g powder
Stability of Plant-Derived Cannabinoid Compounds in Powder Concentrate ([1]; 18 days): 1.13 mg/g powder
Stability of Plant-Derived Cannabinoid Compounds in Powder Concentrate ([1]; 19 days): 1.14 mg/g powder
Stability of Plant-Derived Cannabinoid Compounds in Powder Concentrate ([1]; 22 days): 1.12 mg/g powder
Stability of Plant-Derived Cannabinoid Compounds in Powder Concentrate ([1]; 23 days): 1.13 mg/g powder
Stability of Plant-Derived Cannabinoid Compounds in Powder Concentrate ([1]; 24 days): 1.09 mg/g powder
Stability of Plant-Derived Cannabinoid Compounds in Powder Concentrate ([1]; 25 days): 1.13 mg/g powder
Stability of Plant-Derived Cannabinoid Compounds in Powder Concentrate ([1]; 26 days): 1.14 mg/g powder
Stability of Plant-Derived Cannabinoid Compounds in Powder Concentrate ([1]; 29 days): 1.10 mg/g powder
Stability of Plant-Derived Cannabinoid Compounds in Powder Concentrate ([1]; 30 days): 1.07 mg/g powder
Stability of Plant-Derived Cannabinoid Compounds in Powder Concentrate ([1]; 60 days): 1.11 mg/g powder
Stability of Plant-Derived Cannabinoid Compounds in Powder Concentrate ([1]; 90 days): 1.13 mg/g powder
Stability of Plant-Derived Cannabinoid Compounds in Powder Concentrate ([1]; 120 days): 1.09 mg/g powder
Stability of Plant-Derived Cannabinoid Compounds in Powder Concentrate ([1]; 150 days): 1.11 mg/g powder
Stability of Plant-Derived Cannabinoid Compounds in Powder Concentrate ([1]; 180 days): 1.07 mg/g powder
Stability of Plant-Derived Cannabinoid Compounds in Powder Concentrate ([1]; 210 days): 1.06 mg/g powder
Stability of Plant-Derived Cannabinoid Compounds in Powder Concentrate ([1]; 240 days): 1.12 mg/g powder
Stability of Plant-Derived Cannabinoid Compounds in Powder Concentrate ([1]; 270 days): 1.15 mg/g powder
Stability of Plant-Derived Cannabinoid Compounds in Powder Concentrate ([1]; 300 days): 1.09 mg/g powder
Stability of Plant-Derived Cannabinoid Compounds in Powder Concentrate ([1]; 330 days): 1.10 mg/g powder
Stability of Plant-Derived Cannabinoid Compounds in Powder Concentrate ([1]; 360 days): 1.09 mg/g powder
Stability of Plant-Derived Cannabinoid Compounds in Powder Concentrate ([1]; 390 days): 1.14 mg/g powder
Stability of Plant-Derived Cannabinoid Compounds in Powder Concentrate ([1]; 420 days): 1.11 mg/g powder
Stability of Plant-Derived Cannabinoid Compounds in Powder Concentrate ([1]; 450 days): 1.06 mg/g powder
Stability of Plant-Derived Cannabinoid Compounds in Powder Concentrate ([1]; 480 days): 1.12 mg/g powder
Stability of Plant-Derived Cannabinoid Compounds in Powder Concentrate ([1]; 510 days): 1.07 mg/g powder
Stability of Plant-Derived Cannabinoid Compounds in Powder Concentrate ([1]; 540 days): 1.07 mg/g powder
Stability of Plant-Derived Cannabinoid Compounds in Powder Concentrate ([1]; 570 days): 1.06 mg/g powder
Stability of Plant-Derived Cannabinoid Compounds in AB White, 8° C. ([2]; 0 days): 4.87 µg/mL
Stability of Plant-Derived Cannabinoid Compounds in AB White, 8° C. ([2]; 1 days): 4.74 µg/mL
Stability of Plant-Derived Cannabinoid Compounds in AB White, 8° C. ([2]; 2 days): 4.91 µg/mL
Stability of Plant-Derived Cannabinoid Compounds in AB White, 8° C. ([2]; 3 days): 4.74 µg/mL
Stability of Plant-Derived Cannabinoid Compounds in AB White, 8° C. ([2]; 5 days): 4.88 µg/mL
Stability of Plant-Derived Cannabinoid Compounds in AB White, 8° C. ([2]; 8 days): 4.86 µg/mL
Stability of Plant-Derived Cannabinoid Compounds in AB White, 8° C. ([2]; 9 days): 4.89 µg/mL
Stability of Plant-Derived Cannabinoid Compounds in AB White, 8° C. ([2]; 10 days): 4.77 µg/mL
Stability of Plant-Derived Cannabinoid Compounds in AB White, 8° C. ([2]; 11 days): 4.87 µg/mL
Stability of Plant-Derived Cannabinoid Compounds in AB White, 8° C. ([2]; 12 days): 4.87 µg/mL
Stability of Plant-Derived Cannabinoid Compounds in AB White, 8° C. ([2]; 15 days): 4.81 µg/mL
Stability of Plant-Derived Cannabinoid Compounds in AB White, 8° C. ([2]; 16 days): 4.84 µg/mL
Stability of Plant-Derived Cannabinoid Compounds in AB White, 8° C. ([2]; 17 days): 4.78 µg/mL
Stability of Plant-Derived Cannabinoid Compounds in AB White, 8° C. ([2]; 18 days): 4.81 µg/mL
Stability of Plant-Derived Cannabinoid Compounds in AB White, 8° C. ([2]; 19 days): 4.83 µg/mL
Stability of Plant-Derived Cannabinoid Compounds in AB White, 8° C. ([2]; 22 days): 4.75 µg/mL
Stability of Plant-Derived Cannabinoid Compounds in AB White, 8° C. ([2]; 23 days): 4.89 µg/mL
Stability of Plant-Derived Cannabinoid Compounds in AB White, 8° C. ([2]; 24 days): 4.83 µg/mL
Stability of Plant-Derived Cannabinoid Compounds in AB White, 8° C. ([2]; 25 days): 4.89 µg/mL
Stability of Plant-Derived Cannabinoid Compounds in AB White, 8° C. ([2]; 26 days): 4.77 µg/mL
Stability of Plant-Derived Cannabinoid Compounds in AB White, 8° C. ([2]; 29 days): 4.91 µg/mL
Stability of Plant-Derived Cannabinoid Compounds in AB White, 8° C. ([2]; 30 days): 4.79 µg/mL
Stability of Plant-Derived Cannabinoid Compounds in AB White, 8° C. ([2]; 60 days): 4.68 µg/mL
Stability of Plant-Derived Cannabinoid Compounds in AB White, 8° C. ([2]; 90 days): 4.66 µg/mL
Stability of Plant-Derived Cannabinoid Compounds in AB White, 8° C. ([2]; 120 days): 4.89 µg/mL
Stability of Plant-Derived Cannabinoid Compounds in AB White, 8° C. ([2]; 150 days): 4.83 µg/mL
Stability of Plant-Derived Cannabinoid Compounds in AB White, 8° C. ([2]; 180 days): 4.71 µg/mL
Stability of Plant-Derived Cannabinoid Compounds in AB White, 8° C. ([2]; 210 days): 4.73 µg/mL
Stability of Plant-Derived Cannabinoid Compounds in AB White, 8° C. ([2]; 240 days): 4.69 µg/mL
Stability of Plant-Derived Cannabinoid Compounds in AB White, 8° C. ([2]; 270 days): 4.72 µg/mL
Stability of Plant-Derived Cannabinoid Compounds in AB White, 8° C. ([2]; 300 days): 4.74 µg/mL
Stability of Plant-Derived Cannabinoid Compounds in AB White, 8° C. ([2]; 330 days): 4.69 µg/mL
Stability of Plant-Derived Cannabinoid Compounds in AB White, 8° C. ([2]; 360 days): 4.66 µg/mL
Stability of Plant-Derived Cannabinoid Compounds in AB White, 8° C. ([2]; 390 days): 4.68 µg/mL
Stability of Plant-Derived Cannabinoid Compounds in AB White, 8° C. ([2]; 420 days): 4.66 µg/mL
Stability of Plant-Derived Cannabinoid Compounds in AB White, 8° C. ([2]; 450 days): 4.68 µg/mL
Stability of Plant-Derived Cannabinoid Compounds in AB White, 8° C. ([2]; 480 days): 4.64 µg/mL
Stability of Plant-Derived Cannabinoid Compounds in AB White, 8° C. ([2]; 510 days): 4.49 µg/mL
Stability of Plant-Derived Cannabinoid Compounds in AB White, 8° C. ([2]; 540 days): 4.53 µg/mL
Stability of Plant-Derived Cannabinoid Compounds in AB White, 8° C. ([2]; 570 days): 4.46 µg/mL
Stability of Plant-Derived Cannabinoid Compounds in AB White, 21-25° C. ([2]; 0 days): 4.87 µg/mL
Stability of Plant-Derived Cannabinoid Compounds in AB White, 21-25° C. ([2]; 1 days): 4.73 µg/mL
Stability of Plant-Derived Cannabinoid Compounds in AB White, 21-25° C. ([2]; 2 days): 4.72 µg/mL
Stability of Plant-Derived Cannabinoid Compounds in AB White, 21-25° C. ([2]; 3 days): 4.75 µg/mL
Stability of Plant-Derived Cannabinoid Compounds in AB White, 21-25° C. ([2]; 5 days): 4.89 µg/mL
Stability of Plant-Derived Cannabinoid Compounds in AB White, 21-25° C. ([2]; 8 days): 4.90 µg/mL
Stability of Plant-Derived Cannabinoid Compounds in AB White, 21-25° C. ([2]; 9 days): 4.79 µg/mL
Stability of Plant-Derived Cannabinoid Compounds in AB White, 21-25° C. ([2]; 10 days): 4.68 µg/mL
Stability of Plant-Derived Cannabinoid Compounds in AB White, 21-25° C. ([2]; 11 days): 4.74 µg/mL
Stability of Plant-Derived Cannabinoid Compounds in AB White, 21-25° C. ([2]; 12 days): 4.88 µg/mL
Stability of Plant-Derived Cannabinoid Compounds in AB White, 21-25° C. ([2]; 15 days): 4.87 µg/mL
Stability of Plant-Derived Cannabinoid Compounds in AB White, 21-25° C. ([2]; 16 days): 4.80 µg/mL
Stability of Plant-Derived Cannabinoid Compounds in AB White, 21-25° C. ([2]; 17 days): 4.80 µg/mL
Stability of Plant-Derived Cannabinoid Compounds in AB White, 21-25° C. ([2]; 18 days): 4.72 µg/mL
Stability of Plant-Derived Cannabinoid Compounds in AB White, 21-25° C. ([2]; 19 days): 4.68 µg/mL
Stability of Plant-Derived Cannabinoid Compounds in AB White, 21-25° C. ([2]; 22 days): 4.68 µg/mL
Stability of Plant-Derived Cannabinoid Compounds in AB White, 21-25° C. ([2]; 23 days): 4.85 µg/mL
Stability of Plant-Derived Cannabinoid Compounds in AB White, 21-25° C. ([2]; 24 days): 4.80 µg/mL
Stability of Plant-Derived Cannabinoid Compounds in AB White, 21-25° C. ([2]; 25 days): 4.86 µg/mL
Stability of Plant-Derived Cannabinoid Compounds in AB White, 21-25° C. ([2]; 26 days): 4.78 µg/mL
Stability of Plant-Derived Cannabinoid Compounds in AB White, 21-25° C. ([2]; 29 days): 4.76 µg/mL
Stability of Plant-Derived Cannabinoid Compounds in AB White, 21-25° C. ([2]; 30 days): 4.73 µg/mL
Stability of Plant-Derived Cannabinoid Compounds in AB White, 21-25° C. ([2]; 60 days): 4.83 µg/mL
Stability of Plant-Derived Cannabinoid Compounds in AB White, 21-25° C. ([2]; 90 days): 4.65 µg/mL
Stability of Plant-Derived Cannabinoid Compounds in AB White, 21-25° C. ([2]; 120 days): 4.59 µg/mL
Stability of Plant-Derived Cannabinoid Compounds in AB White, 21-25° C. ([2]; 150 days): 4.63 µg/mL
Stability of Plant-Derived Cannabinoid Compounds in AB White, 21-25° C. ([2]; 180 days): 4.79 µg/mL
Stability of Plant-Derived Cannabinoid Compounds in AB White, 21-25° C. ([2]; 210 days): 4.75 µg/mL
Stability of Plant-Derived Cannabinoid Compounds in AB White, 21-25° C. ([2]; 240 days): 4.79 µg/mL
Stability of Plant-Derived Cannabinoid Compounds in AB White, 21-25° C. ([2]; 270 days): 4.62 µg/mL
Stability of Plant-Derived Cannabinoid Compounds in AB White, 21-25° C. ([2]; 300 days): 4.67 µg/mL
Stability of Plant-Derived Cannabinoid Compounds in AB White, 21-25° C. ([2]; 330 days): 4.71 µg/mL
Stability of Plant-Derived Cannabinoid Compounds in AB White, 21-25° C. ([2]; 360 days): 4.69 µg/mL
Stability of Plant-Derived Cannabinoid Compounds in AB White, 21-25° C. ([2]; 390 days): 4.70 µg/mL
Stability of Plant-Derived Cannabinoid Compounds in AB White, 21-25° C. ([2]; 420 days): 4.72 µg/mL
Stability of Plant-Derived Cannabinoid Compounds in AB White, 21-25° C. ([2]; 450 days): 4.73 µg/mL
Stability of Plant-Derived Cannabinoid Compounds in AB White, 21-25° C. ([2]; 480 days): 4.46 µg/mL
Stability of Plant-Derived Cannabinoid Compounds in AB White, 21-25° C. ([2]; 510 days): 4.51 µg/mL
Stability of Plant-Derived Cannabinoid Compounds in AB White, 21-25° C. ([2]; 540 days): 4.48 µg/mL
Stability of Plant-Derived Cannabinoid Compounds in AB White, 21-25° C. ([2]; 570 days): 4.47 µg/mL
